Assay results published in patent publication US20240101542A1, “ERAP INHIBITORS” (UNIVERSITE DE LILLE, priority 2020, published 2024).
pIC50: −log10 of the molar value.

Key:
[1] = target: ERAP1 (Homo sapiens (Human), UniProt Q9NZ08); assay: In vitro ERAP activity assay, ERAP1 with L-AMC substrate; format: biochemical; conditions: L-AMC as substrate; read-out: IC50 on ERAP1 or ERAAP using L-AMC as substrate
Method: (§1) The enzymatic activity of ERAP1 or 2 was assayed using L-AMC (L-Leucine-7-amido-4-methylcoumarin hydrochloride) or R-AMC (L-Arginine-7-amido-4-methylcoumarin hydrochloride) respectively. Hepes at 50 mM with 100 mM NaCl at pH 7 was used as buffer. Briefly, 60 nL of test compounds were added in 384-wells plates (dark, non-binding surface) by acoustic dispensing with nanoacoustic dispenser Echo (Labcyte) and pre-incubated 30 minutes at ambient temperature with 10 μL of ERAP 0.8 μg/mL or 1 μg/mL or vehicle. The reaction was then started with the addition of 10 μL of substrate at 10 μM. The final concentration of ERAP, substrate and DMSO was 0.5 μg/mL, 5 μM and 0.4% respectively. For the kinetic readout a Victor 3V (Perkin-Elmer) was used with excitation at 380 nm and emission at 450 nm. The fluorescence was measured each 3 minutes during one hour.
(§2) The Z and Z′ factors were calculated according to J.-H. Zhang, T. D. Y. Chung, K. R. Oldenburg, A Simple Statistical Parameter for Use in Evaluation and Validation of High Throughput Screening Assays, J. Biomol. Screen., 4 (1999) 67-73. Data analysis was performed using Xlfit® v 5.0 or GraphPad Prism® v 4.0.
(§3) Percentages of inhibition at different concentrations were obtained as described above and IC50s were carried out as 8-point dose response curves and reported as the average of at least three independent measurements. […] Data analysis was performed using Xlfit® v 5.0 or GraphPad Prism® v 4.0. Nonlinear curve fitting and statistical analysis was done using built-in functions.

[2] = target: ERAP2 (Homo sapiens (Human), UniProt Q6P179); assay: In vitro ERAP activity assay, ERAP2 with R-AMC substrate; format: biochemical; set-up: IC50 on ERAP2 using R-AMC as substrate: scale not given here; conditions: R-AMC as substrate; for pIC50: read-out: IC50 on ERAP2 using R-AMC as substrate
Sequence of ERAP2 (Q6P179 whole entry): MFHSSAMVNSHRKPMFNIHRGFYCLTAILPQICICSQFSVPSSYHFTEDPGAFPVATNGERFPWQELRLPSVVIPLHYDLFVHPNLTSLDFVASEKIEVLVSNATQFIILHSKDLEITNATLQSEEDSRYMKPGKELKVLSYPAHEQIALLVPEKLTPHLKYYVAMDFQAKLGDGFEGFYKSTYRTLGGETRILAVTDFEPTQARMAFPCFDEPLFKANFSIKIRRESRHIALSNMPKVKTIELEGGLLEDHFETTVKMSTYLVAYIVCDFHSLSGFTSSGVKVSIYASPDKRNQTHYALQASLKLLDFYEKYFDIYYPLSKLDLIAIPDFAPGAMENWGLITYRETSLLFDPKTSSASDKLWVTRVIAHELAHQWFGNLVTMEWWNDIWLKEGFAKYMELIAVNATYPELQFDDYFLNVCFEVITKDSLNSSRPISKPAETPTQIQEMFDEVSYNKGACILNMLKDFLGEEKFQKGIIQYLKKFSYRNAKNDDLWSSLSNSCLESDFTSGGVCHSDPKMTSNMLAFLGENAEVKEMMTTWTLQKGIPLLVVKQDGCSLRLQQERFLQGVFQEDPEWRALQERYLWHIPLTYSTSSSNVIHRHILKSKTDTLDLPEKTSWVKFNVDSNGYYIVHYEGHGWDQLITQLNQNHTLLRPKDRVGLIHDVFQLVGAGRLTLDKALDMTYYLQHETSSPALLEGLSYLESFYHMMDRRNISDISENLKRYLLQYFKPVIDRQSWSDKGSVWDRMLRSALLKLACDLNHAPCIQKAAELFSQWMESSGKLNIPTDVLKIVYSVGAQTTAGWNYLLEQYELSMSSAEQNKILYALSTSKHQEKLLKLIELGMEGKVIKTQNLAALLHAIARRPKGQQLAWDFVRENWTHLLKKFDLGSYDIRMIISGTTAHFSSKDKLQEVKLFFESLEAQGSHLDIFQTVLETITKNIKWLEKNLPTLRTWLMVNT
Method: as §1, §2, §3

Sequence of ERAP1 (Q9NZ08 whole entry): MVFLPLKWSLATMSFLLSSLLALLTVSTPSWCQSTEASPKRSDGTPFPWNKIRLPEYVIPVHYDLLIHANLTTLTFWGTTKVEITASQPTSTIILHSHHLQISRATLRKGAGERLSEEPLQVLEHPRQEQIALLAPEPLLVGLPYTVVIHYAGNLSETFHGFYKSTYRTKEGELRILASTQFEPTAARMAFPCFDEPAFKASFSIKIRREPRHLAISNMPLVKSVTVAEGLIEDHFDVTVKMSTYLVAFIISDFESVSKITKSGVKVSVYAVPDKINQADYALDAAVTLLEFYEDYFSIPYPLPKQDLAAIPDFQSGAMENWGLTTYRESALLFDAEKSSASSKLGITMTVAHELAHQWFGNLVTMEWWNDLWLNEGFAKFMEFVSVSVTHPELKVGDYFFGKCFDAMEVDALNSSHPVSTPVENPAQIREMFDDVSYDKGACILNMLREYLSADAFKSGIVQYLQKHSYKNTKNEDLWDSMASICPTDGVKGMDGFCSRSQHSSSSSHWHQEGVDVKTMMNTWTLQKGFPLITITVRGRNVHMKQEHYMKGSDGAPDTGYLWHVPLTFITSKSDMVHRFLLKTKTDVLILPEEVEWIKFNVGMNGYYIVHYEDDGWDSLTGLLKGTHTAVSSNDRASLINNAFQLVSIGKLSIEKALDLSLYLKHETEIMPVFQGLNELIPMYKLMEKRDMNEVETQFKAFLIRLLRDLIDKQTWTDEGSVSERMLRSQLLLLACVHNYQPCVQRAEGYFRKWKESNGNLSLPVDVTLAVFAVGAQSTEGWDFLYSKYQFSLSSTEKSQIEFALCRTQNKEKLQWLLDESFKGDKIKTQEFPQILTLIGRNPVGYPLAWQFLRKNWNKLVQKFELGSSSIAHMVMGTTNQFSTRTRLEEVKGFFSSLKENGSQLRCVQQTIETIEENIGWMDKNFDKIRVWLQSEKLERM

SMILES	pIC50 [1]	pIC50 [2]	IC50 on ERAP2 using R-AMC as substrate [2]
COc1ccc(C[C@@H](C(=O)NO)n2cc(CNS(=O)(=O)c3ccc(-c4ccccc4)s3)nn2)cc1OC [Compound 42]	> 6.30	> 6.30	
CNC(=O)c1cccc(-c2ccc(S(=O)(=O)NCc3cn([C@@H](Cc4ccc(OC)cc4)C(=O)NO)nn3)s2)c1 [Compound 43]	< 5.30	> 6.30	
O=C(NO)[C@H](Cc1ccc(O)c(F)c1)n1cc(CNS(=O)(=O)c2ccc(-c3ccccn3)s2)nn1 [Compound 44]	< 5.30	> 6.30	
O=C(NO)[C@H](Cc1ccc(O)c(F)c1)n1cc(CNS(=O)(=O)c2ccc(-c3ccccc3)s2)nn1 [Compound 45]	< 5.30	> 6.30	
COc1cccc(C[C@@H](C(=O)NO)n2cc(CNS(=O)(=O)c3ccc(-c4ccccn4)s3)nn2)c1 [Compound 49]	< 5.30	> 6.30	
COc1ccc(C[C@@H](C(=O)NO)n2cc(CNS(=O)(=O)c3ccc(-c4ccccn4)s3)nn2)cc1F [Compound 52]	< 5.30	> 6.30	
COc1ccc(C[C@@H](C(=O)NO)n2cc(CNS(=O)(=O)c3ccc(-c4ccccn4)s3)nn2)cc1Cl [Compound 53]	> 5.30	> 6.30	
C#Cc1ccc(C[C@@H](C(=O)NO)n2cc(CNS(=O)(=O)c3ccc(-c4ccccc4)s3)nn2)cc1 [Compound 54]	> 5.30	> 6.30	
N=C(NO)c1ccc(C[C@@H](C(=O)NO)n2cc(CNS(=O)(=O)c3ccc(-c4ccccc4)s3)nn2)cc1 [Compound 55]	> 5.30	> 6.30	
COc1ccc(C[C@@H](C(=O)NO)n2cc(CNS(=O)(=O)c3cnc(-c4ccccc4)s3)nn2)cc1 [Compound 56]	> 5.30	> 6.30	
COc1ccc(C[C@@H](C(=O)NO)n2cc(CN(C3CC3)S(=O)(=O)c3ccc(-c4ccccn4)s3)nn2)cc1 [Compound 57]	< 5.30		+ +
COc1ccc(C[C@@H](C(=O)NO)n2cc(C3CCCCN3S(=O)(=O)c3ccc(-c4ccccc4)s3)nn2)cc1 (stereo partly shown) [Compound 58]	> 5.30	< 5.30	
COc1ccc(C[C@@H](C(=O)NO)n2cc([C@@H]3CCCN3S(=O)(=O)c3ccc(-c4ccccc4)s3)nn2)cc1 [Compound 59]	> 5.30	< 5.30	
N#Cc1ccc(C[C@@H](C(=O)NO)n2cc(CNS(=O)(=O)c3ccc(-c4ccccc4)s3)nn2)cc1 [Compound 60]	> 5.30	> 6.30	
